Measurements published in ChEMBL document CHEMBL1152855, “Regioselective synthesis of dispiro[1H-indene-2,3'-pyrrolidine-2',3''-[3H]indole]-1,2''(1''H)-diones of potential anti-tumor properties” (2009).

Columns and labels:
SF-295 = test: Growth inhibition of human SF295 cells at 10 uM after 48 hrs by sulforhodamine B assay; type: functional; conditions: SF-295, 48 h, values are per cent of control
NCI/ADR-RES = test: Growth inhibition of human NCI/ADR-RES cells at 10 uM after 48 hrs by sulforhodamine B assay; type: functional; conditions: values are per cent of control
UO-31 = test: Growth inhibition of human UO31 cells at 10 uM after 48 hrs by sulforhodamine B assay; type: functional; conditions: UO-31, 48 h, values are per cent of control
MDA-MB-231 = test: Growth inhibition of human MDA-MB-231 cells at 10 uM after 48 hrs by sulforhodamine B assay; type: functional; conditions: MDA-MB-231, 48 h, values are per cent of control
TK-10 = test: Growth inhibition of human TK10 cells at 10 uM after 48 hrs by sulforhodamine B assay; values are per cent of control; conditions: TK-10, 48 h
SNB-75 = test: Growth inhibition of human SNB75 cells at 10 uM after 48 hrs by sulforhodamine B assay; type: functional; conditions: SNB-75, 48 h, values are per cent of control
SF-539 = test: Growth inhibition of human SF539 cells at 10 uM after 48 hrs by sulforhodamine B assay; type: functional; conditions: SF-539, 48 h, values are per cent of control
Rattus norvegicus [1] = test: Antiinflammatory activity against carrageenan-induced paw edema in Wister albino rat assessed as inhibition of edema at 50 mg/kg, ip administered 1 hr prior to carrageenan challenge measured after 4 hrs relative to control; type: functional; conditions: route intraperitoneal
SN12C = test: Growth inhibition of human SN12C cells at 10 uM after 48 hrs by sulforhodamine B assay; type: functional; conditions: values are per cent of control
OVCAR-4 = test: Growth inhibition of human OVCAR4 cells at 10 uM after 48 hrs by sulforhodamine B assay; type: functional; conditions: OVCAR-4, 48 h, values are per cent of control
A498 = test: Growth inhibition of human A498 cells at 10 uM after 48 hrs by sulforhodamine B assay; type: functional; conditions: A498, 48 h, values are per cent of control
SW-620 = test: Growth inhibition of human SW620 cells at 10 uM after 48 hrs by sulforhodamine B assay; type: functional; conditions: SW-620, 48 h, values are per cent of control
OVCAR-5 = test: Growth inhibition of human OVCAR5 cells at 10 uM after 48 hrs by sulforhodamine B assay; type: functional; conditions: OVCAR-5, 48 h, values are per cent of control
EKVX = test: Growth inhibition of human EKVX cells at 10 uM after 48 hrs by sulforhodamine B assay; type: functional; conditions: values are per cent of control
RPMI-8226 = test: Growth inhibition of human RPMI8226 cells at 10 uM after 48 hrs by sulforhodamine B assay; type: functional; conditions: RPMI-8226, 48 h, read-out: GI
Rattus norvegicus [2] = test: Antiinflammatory activity against carrageenan-induced paw edema in Wister albino rat assessed as inhibition of edema at 50 mg/kg, ip administered 1 hr prior to carrageenan challenge measured after 4 hrs relative to indomethacin; type: functional; conditions: route intraperitoneal
NCI-H226 = test: Growth inhibition of human NCI-H226 cells at 10 uM after 48 hrs by sulforhodamine B assay; type: functional; conditions: NCI-H226, 48 h, values are per cent of control
Rattus norvegicus [3] = test: Antiinflammatory activity against carrageenan-induced paw edema in Wister albino rat assessed as inhibition of edema at 50 mg/kg, ip administered 1 hr prior to carrageenan challenge measured after 3 hrs relative to control; type: functional; conditions: route intraperitoneal
SK-MEL-2 = test: Growth inhibition of human SK-MEL-2 cells at 10 uM after 48 hrs by sulforhodamine B assay; type: functional; conditions: SK-MEL-2, 48 h, read-out: GI
[4] = Growth inhibition of human Hs 578T cells at 10 uM after 48 hrs by sulforhodamine B assay; type: functional; conditions: values are per cent of control
HCT-116 = test: Growth inhibition of human HCT116 cells at 10 uM after 48 hrs by sulforhodamine B assay; type: functional; conditions: HCT-116, 48 h, values are per cent of control
MCF7 = test: Growth inhibition of human MCF7 cells at 10 uM after 48 hrs by sulforhodamine B assay; type: functional; conditions: MCF7, 48 h, values are per cent of control
HOP-92 = test: Growth inhibition of human HOP92 cells at 10 uM after 48 hrs by sulforhodamine B assay; type: functional; conditions: HOP-92, 48 h, read-out: GI
HOP-62 = test: Growth inhibition of human HOP62 cells at 10 uM after 48 hrs by sulforhodamine B assay; type: functional; conditions: HOP-62, 48 h, values are per cent of control
NCI-H460 = test: Growth inhibition of human NCI-H460 cells at 10 uM after 48 hrs by sulforhodamine B assay; type: functional; conditions: NCI-H460, 48 h, values are per cent of control
U-251 = test: Growth inhibition of human U251 cells at 10 uM after 48 hrs by sulforhodamine B assay; type: functional; conditions: U-251, 48 h, values are per cent of control
CAKI-1 = test: Growth inhibition of human Caki1 cells at 10 uM after 48 hrs by sulforhodamine B assay; type: functional; conditions: CAKI-1, 48 h, values are per cent of control
UACC-62 = test: Growth inhibition of human UACC62 cells at 10 uM after 48 hrs by sulforhodamine B assay; type: functional; conditions: UACC-62, 48 h, values are per cent of control
LOX IMVI = test: Growth inhibition of human LOXIMVI cells at 10 uM after 48 hrs by sulforhodamine B assay; type: functional; conditions: values are per cent of control
SK-OV-3 = test: Growth inhibition of human SKOV3 cells at 10 uM after 48 hrs by sulforhodamine B assay; type: functional; conditions: SK-OV-3, 48 h, values are per cent of control
KM12 = test: Growth inhibition of human KM12 cells at 10 uM after 48 hrs by sulforhodamine B assay; type: functional; conditions: KM12, 48 h, values are per cent of control
SR = test: Growth inhibition of human SR cells at 10 uM after 48 hrs by sulforhodamine B assay; type: functional; conditions: values are per cent of control
T47D = test: Growth inhibition of human T47D cells at 10 uM after 48 hrs by sulforhodamine B assay; type: functional; conditions: values are per cent of control
PC-3 = test: Growth inhibition of human PC3 cells at 10 uM after 48 hrs by sulforhodamine B assay; type: functional; conditions: PC-3, 48 h, values are per cent of control
DU-145 = test: Growth inhibition of human DU145 cells at 10 uM after 48 hrs by sulforhodamine B assay; type: functional; conditions: DU-145, 48 h, values are per cent of control
MOLT-4 = test: Growth inhibition of human MOLT4 cells at 10 uM after 48 hrs by sulforhodamine B assay; type: functional; conditions: MOLT-4, 48 h, values are per cent of control
NCI-H522 = test: Growth inhibition of human NCI-H522 cells at 10 uM after 48 hrs by sulforhodamine B assay; type: functional; conditions: NCI-H522, 48 h, values are per cent of control
SK-MEL-28 = test: Growth inhibition of human SK-MEL-28 cells at 10 uM after 48 hrs by sulforhodamine B assay; type: functional; conditions: SK-MEL-28, 48 h, values are per cent of control
SF-268 = test: Growth inhibition of human SF268 cells at 10 uM after 48 hrs by sulforhodamine B assay; type: functional; conditions: SF-268, 48 h, values are per cent of control

Compound | growth, % of control at 10 µM (SF-295) [%] | growth, % of control at 10 µM (NCI/ADR-RES) [%] | growth, % of control at 10 µM (UO-31) [%] | growth, % of control at 10 µM (MDA-MB-231) [%] | growth, % of control at 10 µM (TK-10) [%] | growth, % of control at 10 µM (SNB-75) [%] | growth, % of control at 10 µM (SF-539) [%] | inhibition in vivo at 50 mg/kg (Rattus norvegicus [1]) [%] | growth, % of control at 10 µM (SN12C) [%] | growth, % of control at 10 µM (OVCAR-4) [%] | growth, % of control at 10 µM (A498) [%] | growth, % of control at 10 µM (SW-620) [%] | growth, % of control at 10 µM (OVCAR-5) [%] | growth, % of control at 10 µM (EKVX) [%] | inhibition of growth at 10 µM (RPMI-8226) [%] | activity relative to indomethacin (Rattus norvegicus [2]) [%] | growth, % of control at 10 µM (NCI-H226) [%] | inhibition in vivo at 50 mg/kg (Rattus norvegicus [3]) [%] | inhibition of growth at 10 µM (SK-MEL-2) [%] | growth, % of control at 10 µM [4] [%] | other results
[3H]N1C(=O)[C@@]2(c3ccccc31)N(C)C[C@@H](c1ccc(Cl)cc1)[C@@]21Cc2ccccc2C1=O | 31.4 | 64 | 62.7 | 75.1 | 144 | 61.1 | 107 | 15.6 | 79.5 | 74.5 | 61.9 | 76.2 | 93.2 | 52.5 | 36.6 | 32 | 73.7 | 18.9 | -6.14 | -4.92 | growth, % of control at 10 µM (HCT-116): 54.6%; growth, % of control at 10 µM (MCF7): 109%; inhibition of growth at 10 µM (HOP-92): 50.2%; growth, % of control at 10 µM (HOP-62): 87.5%; growth, % of control at 10 µM (NCI-H460): 94.7%; growth, % of control at 10 µM (U-251): 87.7%; growth, % of control at 10 µM (CAKI-1): 80%; growth, % of control at 10 µM (UACC-62): 45.8%; growth, % of control at 10 µM (LOX IMVI): 65.2%; growth, % of control at 10 µM (SK-OV-3): 91%; growth, % of control at 10 µM (KM12): 81.2%; growth, % of control at 10 µM (SR): 167%; growth, % of control at 10 µM (T47D): 81.8%; growth, % of control at 10 µM (PC-3): 36.5%; growth, % of control at 10 µM (DU-145): 103%; growth, % of control at 10 µM (MOLT-4): 57%; growth, % of control at 10 µM (NCI-H522): 73.9%; growth, % of control at 10 µM (SK-MEL-28): 112%; growth, % of control at 10 µM (SF-268): 90%
[3H]C([3H])([3H])N1C(=O)[C@@]2(c3ccccc31)N(C)C[C@@H](c1cccs1)[C@@]21Cc2ccccc2C1=O | 60.4 | 98.5 | 93.5 | 84.3 | 149 | 79 | 112 | 12.9 | 105 | 100 | 103 | 89.1 | 102 | 107 | 87.9 | 27 | 85.7 | 9.1 | -5.11 | 21.1 | growth, % of control at 10 µM (HCT-116): 108%; growth, % of control at 10 µM (MCF7): 103%; inhibition of growth at 10 µM (HOP-92): 69.2%; growth, % of control at 10 µM (HOP-62): 99.9%; growth, % of control at 10 µM (NCI-H460): 107%; growth, % of control at 10 µM (U-251): 102%; growth, % of control at 10 µM (CAKI-1): 106%; growth, % of control at 10 µM (UACC-62): 75.3%; growth, % of control at 10 µM (LOX IMVI): 85.3%; growth, % of control at 10 µM (SK-OV-3): 103%; growth, % of control at 10 µM (KM12): 107%; growth, % of control at 10 µM (SR): 72.5%; growth, % of control at 10 µM (T47D): 101%; growth, % of control at 10 µM (PC-3): 70.3%; growth, % of control at 10 µM (DU-145): 121%; growth, % of control at 10 µM (MOLT-4): 72.2%; growth, % of control at 10 µM (NCI-H522): 94.9%; growth, % of control at 10 µM (SK-MEL-28): 105%; growth, % of control at 10 µM (SF-268): 101%
